# Source: PubChem BioAssay AID2060884 (Molecular Pharmacology Branch, DTP, NCI, 2025)
# pIC50: −log10 of the molar value.
# System: NCI-H929 complex spheroids, viability % test/control
# Test: Anticancer human tumor NCI-H929 cell line growth inhibition [RAS];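 also: compound exposure lasted seven days before viability was read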
# Details: for pIC50: curve of first compound; for viability, T/C: stronger effect = lower value
# Text: RAS pathway inhibitors in Combinations in Complex Spheroids
# A high-throughput screen of multi-cell type tumor spheroids was designed to identify active combinations of RAS pathway inhibitors and targeted small molecules. Complex spheroids include a stromal component modeled by human endothelial cells (HUVEC) and fibroblasts modeled by human mesenchymal stem cells (MSCs). The concentration ranges selected for each drug and investigational agent were based upon clinically achievable concentrations if the clinical Cmax of the agent was known.
# Compounds. The drugs and investigational agents: abemaciclib (NSC768073), cobimetinib (NSC768068), divarasib (GDC6063, NSC841802), docetaxel (NSC628503), GDC-1971 (RLY-1971, NSC841576), gemcitabine (NSC613327), inavolisib (NSC800729), ipatasertib (NSC767898), KB-0742 (NSC834161), MRTX-1133 (NSC836407), osimertinib (NSC779217), RMC-4630 (NSC839698), RMC-6236 (NSC851965), RMC-6291 (NSC852671), Ro-3306 (NSC812927), sapanisertib (NSC764658), SN-38 (NSC673596), staurosporine (NSC755774), SY5609 (NSC837396), and tovorafenib (DAY101, NSC766906), were obtained from the National Cancer Institute (NCI) Developmental Therapeutics Program Chemical Repository. The FDA-approved anticancer drug set is available from the NCI Developmental Therapeutics Program. […] The stock solutions were prepared in dimethyl sulfoxide (DMSO, Sigma-Aldrich, St. Louis, MO, cat. D2650) at 800-fold the tested concentration and stored at -70 degrees C prior to their use. All drugs and investigational agents were tested over a range starting from a high concentration at or near the clinical Cmax and decreasing in half-log increments. If the clinical Cmax for an agent had not been determined, the highest concentration tested was 10 microM.
# Cell Culture. All cells were maintained in an incubator at 37 degrees C and 5% CO2 with 95% humidity. The PDC lines were cultured according to standard operating procedures established by the NCI PDMR. All PDCs were thawed and cultured in Matrigel-coated flasks prepared with a working solution of 1X Ham's F-12 nutrient mix, without supplementation (Invitrogen, Waltham, MA, cat. 11765054), 100 U/mL penicillin-streptomycin (Invitrogen, cat. 15140122), and 2.5% Matrigel (Corning Inc., Corning, NY, cat. 354248) for the first three passages. The 362531-283-R-J2-PDC and 782815-120-R-J1-PDC lines were cultured in 6C/Colon 1B media, which includes advanced DMEM/F-12 (Thermo Fisher Scientific, cat. 12634028), 10 mM HEPES (Thermo Fisher Scientific, cat. 15630080), 1X GlutaMAX supplement (Thermo Fisher Scientific, cat. 35050061), 0.1 mg/mL primocin (InvivoGen, San Diego, CA, cat. ant-pm-2), 10% defined fetal bovine serum, heat inactivated (HyClone Laboratories Inc., Logan, UT, cat. SH30070.03HI), 50% L-WRN conditioned media (ATCC, cat. CRL-3276), 1.25 mM N-Acetyl-L-cysteine (Sigma-Aldrich, cat. A9165), 10 mM nicotinamide (Sigma-Aldrich, cat. N0636), 1X B-27 supplement (Thermo Fisher Scientific, cat. 17504044), 1X N-2 supplement (Thermo Fisher Scientific, cat. 17502048), 50 ng/mL human EGF (Thermo Fisher Scientific, cat. PHG0311), and 10 microM Y-27632 dihydrochloride (Tocris Bioscience, cat. 1254). The K12877-001-R-J1-PDC line was cultured in 6I media, which includes all 6C/Colon 1B media plus 10 ng/mL human FGF-10 (PeproTech, cat. 100-26), 1 ng/mL human FGF-2 (PeproTech, cat. 100-18B), 1 µM prostaglandin E2 (Tocris Bioscience, cat. 2296), […] hydrocortisone (Sigma-Aldrich, cat. H4001), and […] bovine insulin (Sigma-Aldrich, cat. I6634). The K86415-001-R-J1-PDC line was cultured in 6D media, which includes all 6C/Colon 1B media components minus the L-WRN conditioned media. The 485176-168-R4-J1-PDC was cultured in PANC media, which includes all 6C/Colon 1B media plus 100 ng/mL human FGF-10 (PeproTech, cat. 100-26), 500 nM SB-431542 (Selleckchem, cat. S1067), and 10 nM gastrin (Tocris Bioscience, cat. 3006). […]
# [1] = second compound 0.0316 µM, first compound 0.00316 µM
# [2] = second compound 0.0316 µM, first compound 0.01 µM
# [3] = second compound 0.0316 µM, first compound 0.0316 µM
# [4] = second compound 0.0316 µM, first compound 0.1 µM
# [5] = second compound 0.0316 µM, first compound 0.316 µM
# [6] = second compound 0.0316 µM, first compound 1 µM
# [7] = second compound 0.1 µM, first compound 0.00316 µM
# [8] = second compound 0.1 µM, first compound 0.01 µM
# [9] = second compound 0.1 µM, first compound 0.0316 µM
# [10] = second compound 0.1 µM, first compound 0.1 µM
# [11] = second compound 0.1 µM, first compound 0.316 µM
# [12] = second compound 0.1 µM, first compound 1 µM
# [13] = second compound 0.316 µM, first compound 0.00316 µM
# [14] = second compound 0.316 µM, first compound 0.01 µM
# [15] = second compound 0.316 µM, first compound 0.0316 µM
# [16] = second compound 0.316 µM, first compound 0.1 µM
# [17] = second compound 0.316 µM, first compound 0.316 µM
# [18] = second compound 0.316 µM, first compound 1 µM
# [19] = second compound 1 µM, first compound 0.00316 µM
# [20] = second compound 1 µM, first compound 0.01 µM
# [21] = second compound 1 µM, first compound 0.0316 µM
# [22] = second compound 1 µM, first compound 0.1 µM
# [23] = second compound 1 µM, first compound 0.316 µM
# [24] = second compound 1 µM, first compound 1 µM
# [25] = second compound 3.16 µM, first compound 0.00316 µM
# [26] = second compound 3.16 µM, first compound 0.01 µM
# [27] = second compound 3.16 µM, first compound 0.0316 µM
# [28] = second compound 3.16 µM, first compound 0.1 µM
# [29] = second compound 3.16 µM, first compound 0.316 µM
# [30] = second compound 3.16 µM, first compound 1 µM
# [31] = second compound 10 µM, first compound 0.00316 µM
# [32] = second compound 10 µM, first compound 0.01 µM
# [33] = second compound 10 µM, first compound 0.0316 µM
# [34] = second compound 10 µM, first compound 0.1 µM
# [35] = second compound 10 µM, first compound 0.316 µM
# [36] = second compound 10 µM, first compound 1 µM
structure (smiles),measurement,setting,value
C=CC(=O)Nc1cc(Nc2nccc(-c3cn(C)c4ccccc34)n2)c(OC)cc1N(C)CCN(C)C + C#Cc1c(F)ccc2cc(O)cc(-c3ncc4c(N5CC6CCC(C5)N6)nc(OCC56CCCN5CC(F)C6)nc4c3F)c12,pIC50,second compound 0.0316 µM,< 6.00
same,pIC50,second compound 0.1 µM,< 6.00
same,pIC50,second compound 0.316 µM,< 6.00
same,pIC50,second compound 1 µM,< 6.00
same,pIC50,second compound 3.16 µM,< 6.00
same,pIC50,second compound 10 µM,< 6.00
same,"viability, T/C",[1],101%
same,"viability, T/C",[2],94.1%
same,"viability, T/C",[3],101%
same,"viability, T/C",[4],95.4%
same,"viability, T/C",[5],99.7%
same,"viability, T/C",[6],98.8%
same,"viability, T/C",[7],96.8%
same,"viability, T/C",[8],97.5%
same,"viability, T/C",[9],102%
same,"viability, T/C",[10],98.6%
same,"viability, T/C",[11],101%
same,"viability, T/C",[12],102%
same,"viability, T/C",[13],98.1%
same,"viability, T/C",[14],101%
same,"viability, T/C",[15],103%
same,"viability, T/C",[16],99.2%
same,"viability, T/C",[17],104%
same,"viability, T/C",[18],101%
same,"viability, T/C",[19],94%
same,"viability, T/C",[20],97.2%
same,"viability, T/C",[21],106%
same,"viability, T/C",[22],102%
same,"viability, T/C",[23],102%
same,"viability, T/C",[24],102%
same,"viability, T/C",[25],101%
same,"viability, T/C",[26],97.8%
same,"viability, T/C",[27],103%
same,"viability, T/C",[28],98.8%
same,"viability, T/C",[29],102%
same,"viability, T/C",[30],104%
same,"viability, T/C",[31],94%
same,"viability, T/C",[32],98.8%
same,"viability, T/C",[33],94.8%
same,"viability, T/C",[34],102%
same,"viability, T/C",[35],99.1%
same,"viability, T/C",[36],98.3%
O=C(c1ccc(F)c(F)c1Nc1ccc(I)cc1F)N1CC(O)([C@@H]2CCCCN2)C1 + C#Cc1c(F)ccc2cc(O)cc(-c3ncc4c(N5CC6CCC(C5)N6)nc(OCC56CCCN5CC(F)C6)nc4c3F)c12,pIC50,second compound 0.0316 µM,< 6.00
same,pIC50,second compound 0.1 µM,< 6.00
same,pIC50,second compound 0.316 µM,< 6.00
same,pIC50,second compound 1 µM,< 6.00
same,pIC50,second compound 3.16 µM,6.09
same,pIC50,second compound 10 µM,6.21
same,"viability, T/C",[1],83.7%
same,"viability, T/C",[2],91.4%
same,"viability, T/C",[3],84.5%
same,"viability, T/C",[4],91.7%
same,"viability, T/C",[5],113%
same,"viability, T/C",[6],60.2%
same,"viability, T/C",[7],96.5%
same,"viability, T/C",[8],91.3%
same,"viability, T/C",[9],84.4%
same,"viability, T/C",[10],98.7%
same,"viability, T/C",[11],114%
same,"viability, T/C",[12],60%
same,"viability, T/C",[13],95%
same,"viability, T/C",[14],91%
same,"viability, T/C",[15],82.3%
same,"viability, T/C",[16],95%
same,"viability, T/C",[17],115%
same,"viability, T/C",[18],54%
same,"viability, T/C",[19],90.8%
same,"viability, T/C",[20],92.7%
same,"viability, T/C",[21],85.4%
same,"viability, T/C",[22],93.5%
same,"viability, T/C",[23],116%
same,"viability, T/C",[24],50.6%
same,"viability, T/C",[25],90.2%
same,"viability, T/C",[26],91.2%
same,"viability, T/C",[27],81%
same,"viability, T/C",[28],94.5%
same,"viability, T/C",[29],118%
same,"viability, T/C",[30],40.7%
same,"viability, T/C",[31],94%
same,"viability, T/C",[32],94.1%
same,"viability, T/C",[33],90.2%
same,"viability, T/C",[34],95.4%
same,"viability, T/C",[35],115%
same,"viability, T/C",[36],14.8%
